Experimental data from patent US12679878B2, “CRF2 receptor agonists and their use in therapy” (SANOFI, priority 2020, dated 2026).
Starred links: 1 amine or outer side, 2 acyl side, 3 side chain; linkers in the order of their positions; H or OH if unused. Non-standard residues stand in square brackets, D forms with d. Residues, ends and D or L forms follow the SMILES beside them. Groups on a side chain read outwards from the residue. *: point of attachment. C18 diacid = O=C(O)CCCCCCCCCCCCCCCCC(=O)*; γGlu = O=C(O)[C@H](CCC(=O)[*:2])N[*:1]; AEEA = NCCOCCOCC(=O)O; Aib = CC(C)(N)C(=O)O

What follows are molecules tested against T1, human CRF2α receptor (Homo sapiens, UniProt Q13324) (assay: cAMP agonism at human CRF2 α receptor in TeloHEAC cells (Example 7)). Conditions: cAMP HTRF, TeloHEAC cells stably expressing human CRF2 α, 0% HSA; read-out: EC50 [nM], 0% HSA.
T1 construct: expressed in transfected cells; host or cells: TeloHEAC
T1 sequence (Q13324 1-411): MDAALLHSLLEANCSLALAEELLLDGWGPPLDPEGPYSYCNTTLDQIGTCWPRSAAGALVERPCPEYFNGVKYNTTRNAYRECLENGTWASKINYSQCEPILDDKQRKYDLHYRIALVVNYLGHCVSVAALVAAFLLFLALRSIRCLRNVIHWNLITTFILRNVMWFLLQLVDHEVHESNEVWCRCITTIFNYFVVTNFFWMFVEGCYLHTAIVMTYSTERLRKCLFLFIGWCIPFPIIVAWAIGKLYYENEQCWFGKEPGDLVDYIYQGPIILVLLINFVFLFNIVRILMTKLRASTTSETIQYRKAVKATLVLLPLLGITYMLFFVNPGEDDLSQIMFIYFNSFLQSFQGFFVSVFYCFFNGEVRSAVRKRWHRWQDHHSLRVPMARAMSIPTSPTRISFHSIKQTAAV
Type: cell-based
Procedure, shortened: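 Steps: thaw and wash cells; suspend in 1×HBSS, 20 mM HEPES, 0 or 0.1% HSA, 2 mM IBMX; add compound, 30 min RT; lyse with HTRF reagents, 1 h; read 665/620 nm. EC50 calculated, E% versus 1000 nM UCN2.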

| Structure (SMILES) | EC50 |
| --- | --- |
| CC[C@H](C)[C@H](N)C(=O)N[C@H](C(=O)N[C@@H](CC(C)C)C(=O)N[C@@H](CO)C(=O)N[C@@H](CC(C)C)C(=O)N[C@@H](CC(=O)O)C(=O)N[C@H](C(=O)N1CCC[C@H]1C(=O)N[C@H](C(=O)N[C@@H](CCCCN)C(=O)N[C@@H](CC(C)C)C(=O)N[C@@H](CCCCNC(=O)COCCOCCNC(=O)COCCOCCNC(=O)CC[C@H](NC(=O)CCCCCCCCCCCCCCCCC(=O)O)C(=O)O)C(=O)N[C@@H](CCC(N)=O)C(=O)N[C@H](C(=O)N[C@@H](CC(C)C)C(=O)N[C@@H](CC(C)C)C(=O)N[C@@H](CCC(=O)O)C(=O)N[C@@H](CCC(N)=O)C(=O)N[C@@H](C)C(=O)N[C@@H](CCCCN)C(=O)N[C@@H](CCC(N)=O)C(=O)N[C@@H](CCCCN)C(=O)N[C@@H](CCCCN)C(=O)N[C@@H](CCC(=O)O)C(=O)N[C@@H](CCCNC(=N)N)C(=O)N[C@@H](C)C(=O)N[C@@H](CCC(N)=O)C(=O)N[C@@H](C)C(=O)N[C@@H](CCC(=O)O)C(=O)N[C@H](C(=O)N[C@@H](CC(N)=O)C(=O)N[C@H](C(=O)N[C@@H](CCCNC(=N)N)C(=O)N[C@H](C(=O)N[C@@H](CC(C)C)C(=O)N[C@@H](CCC(=O)O)C(=O)N[C@@H](CCCNC(=N)N)C(=O)N[C@H](C(N)=O)C(C)C)[C@@H](C)CC)C(C)C)[C@@H](C)O)[C@@H](C)CC)[C@@H](C)CC)C(C)C)C(C)C [compound 44] (H-IVLSLDVPIKLK([AEEA-AEEA-γGlu-C18 diacid])QILLEQAKQKKERAQAETNVRILERV-NH2) | 13.7 nM |
| CC[C@H](C)[C@H](N)C(=O)N[C@H](C(=O)N[C@@H](CC(C)C)C(=O)N[C@@H](CO)C(=O)N[C@@H](CC(C)C)C(=O)N[C@@H](CC(=O)O)C(=O)N[C@H](C(=O)N1CCC[C@H]1C(=O)N[C@H](C(=O)N[C@@H](CCCCN)C(=O)N[C@@H](CC(C)C)C(=O)N[C@@H](CCCCNC(=O)COCCOCCNC(=O)COCCOCCNC(=O)CC[C@H](NC(=O)CCCCCCCCCCCCCCCCC(=O)O)C(=O)O)C(=O)N[C@@H](CCC(N)=O)C(=O)N[C@H](C(=O)N[C@@H](CC(C)C)C(=O)N[C@@H](CC(C)C)C(=O)N[C@@H](CCCCN)C(=O)N[C@@H](CCC(N)=O)C(=O)N[C@@H](CCC(=O)O)C(=O)N[C@@H](CCCNC(=N)N)C(=O)N[C@@H](CCC(N)=O)C(=O)N[C@@H](CCCNC(=N)N)C(=O)NC(C)(C)C(=O)N[C@@H](CCC(=O)O)C(=O)N[C@@H](CCCNC(=N)N)C(=O)N[C@@H](CCC(N)=O)C(=O)N[C@@H](CCC(N)=O)C(=O)N[C@@H](C)C(=O)N[C@@H](CCC(=O)O)C(=O)N[C@H](C(=O)N[C@@H](CC(N)=O)C(=O)N[C@H](C(=O)N[C@@H](CCCNC(=N)N)C(=O)N[C@H](C(=O)N[C@@H](CC(C)C)C(=O)N[C@@H](CCC(=O)O)C(=O)N[C@@H](CCCNC(=N)N)C(=O)N[C@H](C(N)=O)C(C)C)[C@@H](C)CC)C(C)C)[C@@H](C)O)[C@@H](C)CC)[C@@H](C)O)C(C)C)C(C)C [compound 50] (H-IVLSLDVPTKLK([AEEA-AEEA-γGlu-C18 diacid])QILLKQERQR[Aib]ERQQAETNVRILERV-NH2; N-terminus assumed) | 17.2 nM |
| CC[C@H](C)[C@H](NC(=O)[C@H](CCC(N)=O)NC(=O)[C@H](CCCCNC(=O)COCCOCCNC(=O)COCCOCCNC(=O)CC[C@H](NC(=O)CCCCCCCCCCCCCCCCC(=O)O)C(=O)O)NC(=O)[C@@H](NC(=O)[C@H](CCCCN)NC(=O)[C@@H](NC(=O)[C@@H]1CCCN1C(=O)[C@@H](NC(=O)[C@H](CC(=O)O)NC(=O)[C@H](CC(C)C)NC(=O)[C@H](CO)NC(=O)[C@H](CC(C)C)NC(=O)[C@@H](NC(=O)[C@@H](N)Cc1ccccc1)[C@@H](C)O)C(C)C)[C@@H](C)O)[C@@H](C)CC)C(=O)N[C@@H](CC(C)C)C(=O)N[C@@H](CC(C)C)C(=O)N[C@@H](CCCCN)C(=O)N[C@@H](CCC(N)=O)C(=O)N[C@@H](CCC(N)=O)C(=O)N[C@@H](CCCCN)C(=O)N[C@@H](CCC(N)=O)C(=O)N[C@@H](CCCCN)C(=O)N[C@@H](CCCCN)C(=O)N[C@@H](CCC(=O)O)C(=O)N[C@@H](CCCNC(=N)N)C(=O)N[C@@H](CCC(N)=O)C(=O)N[C@@H](CCCCN)C(=O)N[C@@H](C)C(=O)N[C@@H](CCC(=O)O)C(=O)N[C@H](C(=O)N[C@@H](CC(N)=O)C(=O)N[C@H](C(=O)N[C@@H](CCC(N)=O)C(=O)N[C@@H](CC(C)C)C(=O)N[C@@H](CC(C)C)C(=O)N[C@@H](CCC(=O)O)C(=O)N[C@@H](CCCNC(=N)N)C(=O)N[C@H](C(N)=O)C(C)C)C(C)C)[C@@H](C)O [compound 55] (H-FTLSLDVPTKIK([AEEA-AEEA-γGlu-C18 diacid])QILLKQQKQKKERQKAETNVQLLERV-NH2; N-terminus assumed) | 48.5 nM |
| CC[C@H](C)[C@H](NC(=O)[C@H](CCC(N)=O)NC(=O)[C@H](CCCCNC(=O)COCCOCCNC(=O)COCCOCCNC(=O)CC[C@H](NC(=O)CCCCCCCCCCCCCCCCC(=O)O)C(=O)O)NC(=O)[C@H](CC(C)C)NC(=O)CNC(=O)[C@@H](NC(=O)[C@@H]1CCCN1C(=O)[C@@H](NC(=O)[C@H](CC(=O)O)NC(=O)[C@H](CC(C)C)NC(=O)[C@H](CO)NC(=O)[C@H](CC(C)C)NC(=O)[C@@H](NC(=O)[C@@H](N)Cc1ccccc1)[C@@H](C)O)C(C)C)[C@@H](C)CC)C(=O)N[C@@H](CC(C)C)C(=O)N[C@@H](CC(C)C)C(=O)N[C@@H](CCCCN)C(=O)N[C@@H](CCC(N)=O)C(=O)N[C@@H](CCC(N)=O)C(=O)N[C@@H](CCCCN)C(=O)N[C@@H](CCC(N)=O)C(=O)N[C@@H](CCCCN)C(=O)N[C@@H](CCCCN)C(=O)N[C@@H](CCC(=O)O)C(=O)N[C@@H](CCCNC(=N)N)C(=O)N[C@@H](CCC(N)=O)C(=O)N[C@@H](CCC(N)=O)C(=O)N[C@@H](C)C(=O)N[C@@H](CCC(=O)O)C(=O)N[C@H](C(=O)N[C@@H](CC(N)=O)C(=O)N[C@H](C(=O)N[C@@H](CCC(N)=O)C(=O)N[C@@H](CC(C)C)C(=O)N[C@@H](CC(C)C)C(=O)N[C@@H](CCC(=O)O)C(=O)N[C@@H](CCCNC(=N)N)C(=O)N[C@H](C(N)=O)C(C)C)C(C)C)[C@@H](C)O [compound 56] (H-FTLSLDVPIGLK([AEEA-AEEA-γGlu-C18 diacid])QILLKQQKQKKERQQAETNVQLLERV-NH2) | 22.9 nM |

The next molecules have a lower EC50 than those just listed; values first:

| EC50 | Structure (SMILES) |
| --- | --- |
| 2.2 nM | CC[C@H](C)[C@H](N)C(=O)N[C@H](C(=O)N[C@@H](CC(C)C)C(=O)N[C@@H](CO)C(=O)N[C@@H](CC(C)C)C(=O)N[C@@H](CC(=O)O)C(=O)N[C@H](C(=O)N1CCC[C@H]1C(=O)N[C@H](C(=O)N[C@@H](CCCCN)C(=O)N[C@@H](CC(C)C)C(=O)N[C@@H](CCCCNC(=O)COCCOCCNC(=O)COCCOCCNC(=O)CC[C@H](NC(=O)CCCCCCCCCCCCCCCCC(=O)O)C(=O)O)C(=O)N[C@@H](CCC(N)=O)C(=O)N[C@H](C(=O)N[C@@H](CC(C)C)C(=O)N[C@@H](CC(C)C)C(=O)N[C@@H](CCC(=O)O)C(=O)N[C@@H](CCC(N)=O)C(=O)N[C@@H](CCC(=O)O)C(=O)N[C@@H](CCCNC(=N)N)C(=O)N[C@@H](CCC(N)=O)C(=O)N[C@@H](CCCNC(=N)N)C(=O)NC(C)(C)C(=O)N[C@@H](CCC(=O)O)C(=O)N[C@@H](CCCNC(=N)N)C(=O)N[C@@H](CCC(N)=O)C(=O)N[C@@H](CCC(N)=O)C(=O)N[C@@H](C)C(=O)N[C@@H](CCC(=O)O)C(=O)N[C@H](C(=O)N[C@@H](CC(N)=O)C(=O)N[C@H](C(=O)N[C@@H](CCC(N)=O)C(=O)N[C@H](C(=O)N[C@@H](CC(C)C)C(=O)N[C@@H](C)C(=O)N[C@@H](CCC(N)=O)C(=O)N[C@H](C(N)=O)C(C)C)[C@@H](C)CC)C(C)C)[C@@H](C)O)[C@@H](C)CC)[C@@H](C)CC)C(C)C)C(C)C [compound 48] (H-IVLSLDVPIKLK([AEEA-AEEA-γGlu-C18 diacid])QILLEQERQR[Aib]ERQQAETNVQILAQV-NH2; N-terminus assumed) |
| 12.7 nM | CC[C@H](C)[C@H](N)C(=O)N[C@H](C(=O)N[C@@H](CC(C)C)C(=O)N[C@@H](CO)C(=O)N[C@@H](CC(C)C)C(=O)N[C@@H](CC(=O)O)C(=O)N[C@H](C(=O)N1CCC[C@H]1C(=O)N[C@H](C(=O)N[C@@H](CCCCN)C(=O)N[C@@H](CC(C)C)C(=O)N[C@@H](CCCCNC(=O)COCCOCCNC(=O)COCCOCCNC(=O)CC[C@H](NC(=O)CCCCCCCCCCCCCCCCC(=O)O)C(=O)O)C(=O)N[C@@H](CCC(N)=O)C(=O)N[C@H](C(=O)N[C@@H](CC(C)C)C(=O)N[C@@H](CC(C)C)C(=O)N[C@@H](CCC(=O)O)C(=O)N[C@@H](CCC(N)=O)C(=O)N[C@@H](CCC(=O)O)C(=O)N[C@@H](CCCNC(=N)N)C(=O)N[C@@H](CCC(N)=O)C(=O)N[C@@H](CCCNC(=N)N)C(=O)NC(C)(C)C(=O)N[C@@H](CCC(=O)O)C(=O)N[C@@H](CCCNC(=N)N)C(=O)N[C@@H](CCC(N)=O)C(=O)N[C@@H](CCC(N)=O)C(=O)N[C@@H](C)C(=O)N[C@@H](CCC(=O)O)C(=O)N[C@H](C(=O)N[C@@H](CC(N)=O)C(=O)N[C@H](C(=O)N[C@@H](CCCNC(=N)N)C(=O)N[C@H](C(=O)N[C@@H](CC(C)C)C(=O)N[C@@H](CCC(=O)O)C(=O)N[C@@H](CCCNC(=N)N)C(=O)N[C@H](C(N)=O)C(C)C)[C@@H](C)CC)C(C)C)[C@@H](C)O)[C@@H](C)CC)[C@@H](C)CC)C(C)C)C(C)C [compound 49] (H-IVLSLDVPIKLK([AEEA-AEEA-γGlu-C18 diacid])QILLEQERQR[Aib]ERQQAETNVRILERV-NH2; N-terminus assumed) |
